The results in this text go back to US7217739B2, “Method for inducing cell death with carbonyl scavengers” (Arizona Board of Regents on behalf of the University of …, priority 2004, dated 2007).

In data set [1] the test system is human A431 cells. As to the kind of experiment: Apoptosis in squamous cell carcinoma line A431. Conditions: 10 mM, 24 hours. The data set is classed as cell-based. The method, then:
In each case, 10 mM of the test compound was used, over 24 hours, on human A431 cells, and apoptosis was measured as described, supra.

The test system of data set [2] is normal human skin fibroblasts CF3. As to the kind of experiment: Apoptosis by annexin V-FITC/propidium iodide flow cytometry, normal CF3 fibroblasts. Format: cell-based. The method, then: (§1) The murine melanoma cell line B16 was used, as were three human melanoma lines, i.e., G-361, A-375, and LOX. Samples of the cells were exposed to 10 mM of D-penicillamine continuously, over a 24 hour period. Apoptosis was measured using a standard assay, i.e., flow cytometric staining using annexin V-FITC/propidium iodide. As a control, normal human skin fibroblasts, i.e., “CF3” cells, were used.
(§2) Malignant human melanoma cells A375, and normal fibroblasts (CF3), were tested, using 10 mM of MEC, with 24 hours of exposure.
Background: A flow cytometer gives signals particle by particle.

In data set [3] the test system is human melanoma line A-375. As to the kind of experiment: Apoptosis by annexin V-FITC/propidium iodide flow cytometry, A-375 melanoma. The data set is classed as cell-based. The method, then: as §1, §2
Data set [4] relates to Human HeLa cervical adenocarcinoma cells. As to the kind of experiment: Apoptosis in HeLa cervical adenocarcinoma cells. The data set is classed as cell-based. The method, then:
The efficacy of the compounds on other cancers, epithelial cancers in particular, was determined. Human HeLa cervical adenocarcinoma cells were used, and tested with D-penicillamine, at 10 mM, and aminoguanidine, at 25 mM.

The subject of data set [5] is human melanoma cell line G-361. As to the kind of experiment: Apoptosis by annexin V-FITC/propidium iodide flow cytometry, G-361 melanoma. The data set is classed as cell-based. Conditions: G-361 cells. On the procedure: as §1
The compound D-penicillamine (D-P), aminoguanidine (AG), N-acetyl-D-penicillamine (NAP), N-acetyl-L-cysteine (NAC), and penicillamine disulfide (PSS) were tested. D-P, NAC and NAP are known as antioxidants. D-P and aminoguanidine are known as carbonyl scavengers.

The subject of data set [6] is A375 melanoma cells in collagen matrix. As to the kind of experiment: Dermal melanoma reconstruct, melanoma cells. Format: cell-based, human. Conditions: 12.5 mM; A375 and CF3 cells embedded in a collagen matrix. An excerpt:
(§3) A dermal melanoma reconstruct was made, where both CF3 fibroblast and A375 melanoma cells were embedded in a collagen matrix. Seventy two hours after “seeding” in the matrix, the melanoma cells have proliferated extensively, as the controls show, in FIG. 7.

Data set [7] concerns premalignant, immortalized human keratinocytes HaCaT. As to the kind of experiment: Apoptosis in premalignant immortalized keratinocytes. The data set is classed as cell-based. As to conditions: HaCaT cells; 12.5 mM; continuous over 24 hours. On the procedure:
In these experiments, D-penicillamine was added, at a concentration of 12.5 mM, to premalignant, immortalized human keratinocytes, or “HaCaT” cells, and the exposure was Continuous over 24 hours.

Data set [8] deals with murine melanoma cell line B16. As to the kind of experiment: Apoptosis by annexin V-FITC/propidium iodide flow cytometry, B16 melanoma. As to conditions: B16 cells; continuous 24 hour exposure; D-penicillamine 10 mM. The data set is classed as cell-based. On the procedure:
as §1

In data set [9] the test system is human melanoma line LOX. As to the kind of experiment: Apoptosis by annexin V-FITC/propidium iodide flow cytometry, LOX melanoma. The data set is classed as cell-based. As to conditions: LOX cells; continuous 24 hour exposure; D-penicillamine 10 mM. The method, then: as §1
Data set [10] has as its system CF3 fibroblast in collagen matrix. As to the kind of experiment: Dermal melanoma reconstruct, fibroblast network. Format: cell-based, human. As to conditions: 12.5 mM; A375 and CF3 cells embedded in a collagen matrix.
Description: as §3

Where [11] appears, read: Example 6, concentration not given.

As for `COC(=O)[C@H](N)C(C)(C)S` [D-penicillamine methyl ester], the induction of apoptosis entry in [1] was “induction of apoptosis”; in [1] (listed as D-P—OCH3), “stronger apoptotic effect”.

As for `CCC(C)(S)[C@H](N)C(=O)O` (stereo partly drawn) [MEC, 3-methyl-3-ethyl-L-cysteine], the induction of apoptosis result is recorded as “none was observed” in data set [2] (normal CF3 fibroblasts, 10 mM of MEC, 24 hours of exposure) and “Pronounced induction of apoptosis” in data set [3] (A375 cells, 10 mM of MEC, 24 hours of exposure).

For the compound `N=C(N)NN` [aminoguanidine], the induction of apoptosis result in data set [4] (25 mM) is listed as “apoptosis inducers”; in data set [5] (setting [11]), “induced apoptosis”.

Regarding `CC(C)(S)[C@@H](N)C(=O)O` [D-penicillamine, 3-mercapto-D-valine], the “elimination of melanoma cells from dermal melanoma reconstruct” value in data set [6] was “eliminated the melanoma cells”. Moreover, the induction of apoptosis entry in data set [7] is reported as “apoptosis is indicated”; in [4] (10 mM), “apoptosis inducers”; in data set [2] (normal CF3 cells, continuous 24 hour exposure, D-penicillamine 10 mM), “no change”; in [5] (setting [11]), “induced apoptosis”; in data set [5] (continuous 24 hour exposure, D-penicillamine 10 mM), “apoptosis was induced”; in data set [8], “apoptosis was induced”. Further, the induction of apoptosis result is “apoptosis was induced” in data set [3] (A-375 cells, continuous 24 hour exposure, D-penicillamine 10 mM); “apoptosis was induced” in data set [9]; “induction of apoptosis” in data set [1]. In data set [10], the “structure integrity of the fibroblast collagen network” value was “maintained the structure integrity of the fibroblast collagen network”.
